Laboratory results: patent publication US20070037823A1, “Substituted piperidine and piperazine derivatives as melanocortin-4 receptor modulators” (priority 2003, published 2007)

Molecular target: T1, hMC4-R (Homo sapiens, UniProt P32245)
T1 construct: expressed in transfected cells; host or cells: HEK293 cells
Experiment: Functional cellular cAMP assay in HEK293 cells (fluorescence polarization)
Format: cell-based
Conditions: HEK293 cells, cAMP production
Procedure: A functional cellular assay, based on competition between unlabeled cAMP and a fixed quantity of fluorescence labeled cAMP for a limited number of binding sites on a cAMP specific antibody, is used to discriminate melanocortin receptor agonists from antagonists by fluorescence polarization.
HEK293 cells expressing one of the human melanocortin receptors are transferred to 384 well microtiter plates, an appropriate amount of cAMP antibody is added, followed by the addition of different concentrations of the test compound to effect cAMP production. Cells are lysed and a fluorescence labeled cAMP conjugate is dispensed. The plate is read on a fluorescence polarization microplate reader and the amount of cAMP produced as a response to a test compound is compared to the production of CAMP resulting from stimulation with NDP-alpha-MSH. […]

T1 sequence (P32245 whole entry): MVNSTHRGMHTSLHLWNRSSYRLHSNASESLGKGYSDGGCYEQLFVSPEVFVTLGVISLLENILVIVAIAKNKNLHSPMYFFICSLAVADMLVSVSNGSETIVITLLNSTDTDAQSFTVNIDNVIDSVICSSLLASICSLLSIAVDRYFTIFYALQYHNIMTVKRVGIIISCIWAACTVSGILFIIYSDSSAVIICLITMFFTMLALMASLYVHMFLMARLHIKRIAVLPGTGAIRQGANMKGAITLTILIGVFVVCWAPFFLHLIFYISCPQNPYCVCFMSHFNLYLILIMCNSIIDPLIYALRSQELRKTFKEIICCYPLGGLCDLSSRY

EC50	SMILES
3.1 µM	CC(C)(C)NC(=O)C1(C2CCCCC2)CCN(C[C@@H](Cc2ccc(Cl)cc2)NC(=O)[C@H]2Cc3ccccc3CN2)CC1.Cl [Example 2]
8 µM	CC(C)(C)NC(=O)C1(C2CCCCC2)CCN(CC[C@@H](Cc2ccc(Cl)cc2)NC(=O)[C@H]2Cc3ccccc3CN2)CC1.Cl [Example 5]

Same assay, conditions: cAMP compared to stimulation with NDP-alpha-MSH

SMILES	% activation functional assay
CC(C)(C)NC(=O)C1(C2CCCCC2)CCN(C[C@@H](Cc2ccc(Cl)cc2)NC(=O)[C@H]2Cc3ccccc3CN2)CC1.Cl [Example 2]	80%
CC(C)(C)NC(=O)C1(C2CCCCC2)CCN(C[C@H](Cc2ccc(Cl)cc2)NC(=O)c2cc(=O)c3ccccc3o2)CC1 [Example 28]	no activation
CC(C)(C)NC(=O)C1(C2CCCCC2)CCN(C[C@@H](Cc2ccc(Cl)cc2)NC(=O)c2cc(=O)c3ccccc3o2)CC1 [Example 29]	no activation
CC(C)(C)NC(=O)C1(C2CCCCC2)CCN(CC[C@@H](Cc2ccc(Cl)cc2)NC(=O)c2cc(=O)c3ccccc3o2)CC1 [Example 30]	no activation
CC(C)(C)NC(=O)C1(C2CCCCC2)CCN(CC[C@H](Cc2ccc(Cl)cc2)NC(=O)c2cc(=O)c3ccccc3o2)CC1 [Example 31]	no activation

Results, then the compound that gave them:

% activation functional assay	SMILES
no activation	CC(C)(C)NC(=O)C1(C2CCCCC2)CCN(C[C@H](Cc2ccc(Cl)cc2)NC(=O)[C@H]2Cc3ccccc3CN2)CC1.Cl [Example 1]
no activation	CC(C)(C)NC(=O)C1(C2CCCCC2)CCN(C[C@@H](Cc2ccc(Cl)cc2)NC(=O)[C@@H]2Cc3ccccc3CN2)CC1.Cl [Example 3]
52%	CC(C)(C)NC(=O)C1(C2CCCCC2)CCN(CC[C@@H](Cc2ccc(Cl)cc2)NC(=O)[C@H]2Cc3ccccc3CN2)CC1.Cl [Example 5]
no activation	CC(C)(C)NC(=O)C1(C2CCCCC2)CCN(CC[C@H](Cc2ccc(Cl)cc2)NC(=O)[C@H]2Cc3ccccc3CN2)CC1.Cl [Example 6]

Molecular target: T1, hMC4-R
Experiment: Membrane binding assay, fluorescence labeled NDP-alpha-MSH competition (fluorescence polarization)
Conditions: HEK293 cell membrane preparations
Procedure: A membrane binding assay is used to identify competitive inhibitors of fluorescence labeled NDP-alpha-MSH binding to HEK293 cell membrane preparations expressing human melanocortin receptors.
The test compound or unlabeled NDP-alpha-MSH is dispensed at varying concentrations to a 384 well microtiter plate. Fluorescence labeled NDP-alpha-MSH is dispensed at a single concentration, followed by addition of membrane preparations. The plate is incubated for 5 h at room temperature.
The degree of fluorescence polarization is determined with a fluorescence polarization microplate reader.

SMILES	IC50
CC(C)(C)NC(=O)C1(C2CCCCC2)CCN(C[C@@H](Cc2ccc(Cl)cc2)NC(=O)[C@H]2Cc3ccccc3CN2)CC1.Cl [Example 2]	0.72 µM
CC(C)(C)NC(=O)C1(C2CCCCC2)CCN(C[C@H](Cc2ccc(Cl)cc2)NC(=O)c2cc(=O)c3ccccc3o2)CC1 [Example 28]	2.3 µM
CC(C)(C)NC(=O)C1(C2CCCCC2)CCN(C[C@@H](Cc2ccc(Cl)cc2)NC(=O)c2cc(=O)c3ccccc3o2)CC1 [Example 29]	2.6 µM
CC(C)(C)NC(=O)C1(C2CCCCC2)CCN(CC[C@@H](Cc2ccc(Cl)cc2)NC(=O)c2cc(=O)c3ccccc3o2)CC1 [Example 30]	2.1 µM
CC(C)(C)NC(=O)C1(C2CCCCC2)CCN(CC[C@H](Cc2ccc(Cl)cc2)NC(=O)c2cc(=O)c3ccccc3o2)CC1 [Example 31]	0.061 µM

Continued, values first:

IC50	SMILES
0.7 µM	CC(C)(C)NC(=O)C1(C2CCCCC2)CCN(C[C@H](Cc2ccc(Cl)cc2)NC(=O)[C@H]2Cc3ccccc3CN2)CC1.Cl [Example 1]
0.42 µM	CC(C)(C)NC(=O)C1(C2CCCCC2)CCN(C[C@@H](Cc2ccc(Cl)cc2)NC(=O)[C@@H]2Cc3ccccc3CN2)CC1.Cl [Example 3]
2.5 µM	CC(C)(C)NC(=O)C1(C2CCCCC2)CCN(CC[C@@H](Cc2ccc(Cl)cc2)NC(=O)[C@H]2Cc3ccccc3CN2)CC1.Cl [Example 5]
1 µM	CC(C)(C)NC(=O)C1(C2CCCCC2)CCN(CC[C@H](Cc2ccc(Cl)cc2)NC(=O)[C@H]2Cc3ccccc3CN2)CC1.Cl [Example 6]

Test system: male Wistar rats
Experiment: Spontaneous feeding paradigm (food intake)
Format: in vivo, rat
Conditions: 10 mg/kg p.o.
Procedure: Food intake in rats is measured after i.p. or p.o. administration of the test compound (see e.g. Chen, A. S. et al. Transgenic Res April 2000; 9(2):145-54).
3-4 Hours following the onset of the light-phase, individually housed, male Wistar rats (200-300 g) receive an ip injection or po application of test compound or vehicle in an administration volume of 2 ml/kg. Following the administration of substances (1-30 mg/kg), a pre-weighed amount of normal laboratory chow is placed into the food hopper. Food remaining is measured by hand at 1-2 hour intervals for up to 8 hours. Differences in food intake between test-compound and vehicle-treated rats are evaluated.

SMILES	activity in the spontaneous feeding paradigm (increase in food intake)
CC(C)(C)NC(=O)C1(C2CCCCC2)CCN(C[C@H](Cc2ccc(Cl)cc2)NC(=O)[C@H]2Cc3ccccc3CN2)CC1.Cl [Example 1]	active
CC(C)(C)NC(=O)C1(C2CCCCC2)CCN(CC[C@H](Cc2ccc(Cl)cc2)NC(=O)c2cc(=O)c3ccccc3o2)CC1 [Example 31]	active

Same assay, conditions: 10 mg/kg p.o., 2 hours following administration, compared to vehicle control

SMILES	increase in cumulative food intake
CC(C)(C)NC(=O)C1(C2CCCCC2)CCN(C[C@H](Cc2ccc(Cl)cc2)NC(=O)[C@H]2Cc3ccccc3CN2)CC1.Cl [Example 1]	2700%
CC(C)(C)NC(=O)C1(C2CCCCC2)CCN(CC[C@H](Cc2ccc(Cl)cc2)NC(=O)c2cc(=O)c3ccccc3o2)CC1 [Example 31]	1100%

Same assay, conditions: 10 mg/kg p.o., 4 hours following administration, compared to vehicle control

SMILES	increase in cumulative food intake
CC(C)(C)NC(=O)C1(C2CCCCC2)CCN(C[C@H](Cc2ccc(Cl)cc2)NC(=O)[C@H]2Cc3ccccc3CN2)CC1.Cl [Example 1]	700%
CC(C)(C)NC(=O)C1(C2CCCCC2)CCN(CC[C@H](Cc2ccc(Cl)cc2)NC(=O)c2cc(=O)c3ccccc3o2)CC1 [Example 31]	380%

Same assay, conditions: 10 mg/kg p.o., 6 hours following administration, compared to vehicle control

SMILES	increase in cumulative food intake
CC(C)(C)NC(=O)C1(C2CCCCC2)CCN(C[C@H](Cc2ccc(Cl)cc2)NC(=O)[C@H]2Cc3ccccc3CN2)CC1.Cl [Example 1]	175%
